Data on 8 compounds can be found in ChEMBL document CHEMBL1146495, “Iridoids as allelochemicals and DNA polymerase inhibitors” (J Nat Prod, 2004).

Active and inactive are the calls of the source. The calls are words filed in the database; no cut-off is given here.

Experiment [1] has as its target DNA polymerase I, thermostable (Thermus aquaticus) (UniProt P19821). The experiment can be described thus: Inhibition of Thermus aquaticus-DNA polymerase at 500 uM by PCR analysis.
Experiment [2] deals with DNA polymerase I, thermostable (Thermus aquaticus, UniProt P19821). The experiment can be described thus: Inhibition of Thermus aquaticus-DNA polymerase by PCR analysis.
Experiment [3] deals with Tribolium castaneum. The experiment can be described thus: Antifeedant activity against Tribolium castaneum assessed as efficiency of conversion of ingested food at 200 ug/disk after 5 days by flour disk assay. It counts as functional, Instar larval stage.
In experiment [4] the test system is Tribolium castaneum. The experiment can be described thus: Insecticidal activity against Tribolium castaneum fifth instar larvae assessed as mortality at 60 ug/uL, treated topically. It counts as functional.
Experiment [5] has as its system Tribolium castaneum. The experiment can be described thus: Antifeedant activity against Tribolium castaneum assessed as relative growth rate at 200 ug/disk after 5 days by flour disk assay. It is filed as functional.
Experiment [6] concerns Tribolium castaneum. Briefly: Insecticidal activity against Tribolium castaneum fifth instar larvae assessed as pupal stage duration at 60 ug/uL, treated topically. It counts as functional.
The subject of experiment [7] is Tribolium castaneum. The experiment can be described thus: Antifeedant activity against Tribolium castaneum assessed as relative consumption rate at 200 ug/disk after 5 days by flour disk assay. It is filed as functional.
Experiment [8] concerns Tribolium castaneum. The experiment can be described thus: Antifeedant activity against Tribolium castaneum assessed as feeding deterrence index at 200 ug/disk after 5 days by flour disk assay. It is filed as functional, organism-based.

Chain of DNA polymerase I, thermostable (P19821 whole entry): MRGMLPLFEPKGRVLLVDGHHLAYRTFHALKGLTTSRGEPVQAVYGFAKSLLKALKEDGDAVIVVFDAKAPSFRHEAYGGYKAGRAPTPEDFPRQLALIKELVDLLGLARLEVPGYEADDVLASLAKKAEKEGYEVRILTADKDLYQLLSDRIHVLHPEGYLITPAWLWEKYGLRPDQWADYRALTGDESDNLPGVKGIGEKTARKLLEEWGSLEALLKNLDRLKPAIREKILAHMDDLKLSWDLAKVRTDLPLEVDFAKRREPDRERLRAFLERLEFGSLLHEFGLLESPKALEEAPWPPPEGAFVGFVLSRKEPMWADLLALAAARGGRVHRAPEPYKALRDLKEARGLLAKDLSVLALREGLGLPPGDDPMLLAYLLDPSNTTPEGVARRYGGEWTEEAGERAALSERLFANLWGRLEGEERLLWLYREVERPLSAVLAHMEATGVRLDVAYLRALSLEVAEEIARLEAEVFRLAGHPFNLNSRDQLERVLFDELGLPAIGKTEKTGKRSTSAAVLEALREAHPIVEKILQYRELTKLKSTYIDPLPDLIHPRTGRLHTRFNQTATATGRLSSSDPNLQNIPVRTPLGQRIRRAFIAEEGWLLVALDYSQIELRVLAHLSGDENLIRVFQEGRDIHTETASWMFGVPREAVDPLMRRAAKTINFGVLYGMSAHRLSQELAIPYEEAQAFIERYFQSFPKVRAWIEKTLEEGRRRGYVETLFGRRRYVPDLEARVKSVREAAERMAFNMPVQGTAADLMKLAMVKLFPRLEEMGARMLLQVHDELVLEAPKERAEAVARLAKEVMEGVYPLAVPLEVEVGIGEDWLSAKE
Chain of DNA polymerase I, thermostable (Thermus aquaticus) (P19821 whole entry): as above

For `CC(=O)OC[C@H]1O[C@@H](O[C@@H]2OC=C[C@H]3[C@H](OC(C)=O)[C@@H]4O[C@]4(COC(C)=O)[C@@H]23)[C@H](OC(C)=O)[C@@H](OC(C)=O)[C@@H]1OC(C)=O`, the outcome in experiment [1] was inactive.

Usually IC50 stands for the point on the concentration scale where inhibition reaches its midpoint. A high value points to weaker potency. In turn, `C[C@]1(O)C[C@@H](O)[C@]2(O)C=CO[C@@H](O[C@@H]3O[C@H](CO)[C@@H](O)[C@H](O)[C@H]3O)[C@@H]21` [HARPAGIDE] displayed an IC50 in experiment [2] of 417 µM.

As to `CC(=O)O[C@@]1(C)C[C@@H](O)[C@]2(O)C=CO[C@@H](O[C@@H]3O[C@H](CO)[C@@H](O)[C@H](O)[C@H]3O)[C@@H]21`, the Activity was -8.908% with Tribolium castaneum [3]; 56.6% with Tribolium castaneum [4]; -0.004 mg/mg/day with Tribolium castaneum [5]; 11.3 days in the experiment on Tribolium castaneum [6]; 0.058 mg/mg/day with Tribolium castaneum [7]. This compound also had an IC50 in experiment [2] of 214 µM. In addition, in the experiment on Tribolium castaneum [8], the result was inactive.

Regarding `OC[C@H]1O[C@@H](O[C@@H]2OCC[C@H]3[C@H](O)[C@@H]4O[C@]4(CO)[C@@H]23)[C@H](O)[C@@H](O)[C@@H]1O`, the outcome in experiment [1] was inactive.

For `OC[C@H]1O[C@@H](O[C@@H]2OC=C[C@H]3[C@H](O)[C@@H]4O[C@]4(CO)[C@@H]23)[C@H](O)[C@@H](O)[C@@H]1O` [CATALPOL], the Activity in the experiment with Tribolium castaneum [3] was -66.101%; in the experiment with Tribolium castaneum [4], 73.3%; in the experiment on Tribolium castaneum [5] it was -0.01 mg/mg/day; with Tribolium castaneum [6], 8.2 days; in the experiment on Tribolium castaneum [7], 0.017 mg/mg/day. The compound also displayed an IC50 in experiment [2] of 47.8 µM. Moreover, the outcome in the experiment on Tribolium castaneum [8] was inactive.

As to `CC(=O)O[C@@H]1[C@@H](OC(C)=O)[C@H](O[C@@H]2OC=C[C@H]3[C@H](OC(C)=O)[C@@H]4O[C@]4(CO[Si](c4ccccc4)(c4ccccc4)C(C)(C)C)[C@@H]23)O[C@H](CO[Si](c2ccccc2)(c2ccccc2)C(C)(C)C)[C@H]1OC(C)=O`, in experiment [1], the result was inactive.

Consider `C[C@]1(O)C[C@@H](O)[C@]2(O)C=CO[C@@H](O[C@H]3O[C@H](CO)[C@@H](O)[C@H](O)[C@H]3O)[C@@H]21` [HARPAGIDE], for which the Activity in the experiment on Tribolium castaneum [3] is -30.729%; in the experiment on Tribolium castaneum [4] it was 60%; in the experiment on Tribolium castaneum [5], -0.003 mg/mg/day; with Tribolium castaneum [6], 12.1 days; in the experiment on Tribolium castaneum [7] it was 0.019 mg/mg/day. Besides, the result in the experiment on Tribolium castaneum [8] was inactive.

On to `CCCCCCCC/C=C\CCCCCCCCOC[C@H]1O[C@@H](O[C@@H]2OC=C[C@H]3[C@H](O)[C@@H]4O[C@]4(COCCCCCCCC/C=C\CCCCCCCC)[C@@H]23)[C@H](O)[C@@H](O)[C@@H]1O`, for which, in experiment [1], the result was inactive.
